Reference: patent publication US12478677B2, “Tunable luminescent organic salts for enhanced imaging and photodynamic therapy” (BOARD OF TRUSTEES OF MICHIGAN STATE UNIVERSITY, priority 2017, dated 2025)
“Also recorded” adds a separate entry of the source. Where two headings read alike, the source gives them in different places. One block for each compound: values may come before it.

Assays:
[1] = Salt integrity and aggregation in cell media (mass spectrometry, electron microscopy, UV-Vis); format: physicochemical; settings: for Integrity of salt pairing in cellular environments: high resolution mass spectrometry, electron microscopy, UV-Vis spectroscopy
Excerpt: FIGS. 7A-7C. […] Organic salts were first dissolved in DMSO and then diluted in water, forming nanoparticles. […] Combinations of H- and J-aggregation of organic salts can be seen by blue-shifted peaks (lower wavelength) and red-shifted peaks (higher wavelength), respectively. The nanoparticles with small hard anions redissolve in cell media likely due to sterics. […] This is achieved by cation-anion pairs of luminescent organic salts that can be modulated to be either non-toxic for enhanced imaging, or phototoxic for improved PDT. […] IR polymethine cyanine dyes, which have been used as effective theranostics are described. […] This is thought to occur through a mechanism mitigated by tumor vascularization, increased retention in cancer cells, and mitochondrial depolarization. Once in the cell, they accumulate in the mitochondria and lysosomes, where irradiation induces generation of cytotoxic oxygen species. A strategy is described for preventing or inhibiting salt dissociation in cells: aggregates are formed via introduction of the salt into an aqueous media by a solvent vehicle, forming particles with diameters of about 5 nm in size with no precipitation observed. […] This is confirmed by high resolution mass spectrometry, electron microscopy, and UV-Vis spectroscopy. […] Normalized absorption data are sown in FIGS. 7A, 7B, and 7C. This is likely due to steric effects, where if the counterion radius is too small it is not able to protect the nanoparticle stability. This can be characterized by the volume-averaged effective spherical radius of the counterions, where the cutoff is at about 0.275 nm.

[2] = test system: A549 cells; experiment: Viability studies (trypan blue staining and cell counting) with or without IR excitation; format: cell-based, human; settings: for IC50: linear regression analysis; for Toxicity in words, dark and light: with or without IR (850 nm) excitation; for Toxicity in the dark, in words: without IR excitation; for Concentration at which cytotoxic: cells, toxic at low concentration, even without IR light; for Phototoxicity with IR excitation, in words: IR (850 nm) excitation
Protocol: The cell lines human lung carcinoma (A549), metastatic human melanoma (WM1158) and Vemurafenib-resistant melanoma (Sk-Mel-28-Vem^R) are used. Sk-Mel-28-Vem^R is generated by culturing a parental melanoma cell lines in the presence of 2 μM Vemurafenib for 2 months. Acquired Vemurafenib resistance is defined by >1 log change in IC50 between nonresistant and resistant cell lines. Resistance is maintained through media supplementation with 2 μM Vemurafenib, which is changed every 48 hours. All cells are cultured in DMEM without pyruvate with 10% heat inactivated fetal bovine serum supplemented with glutamine and penicillin/streptomycin, and incubated in 37° C. with 5% CO2.
A549 and WM1158 cells are seeded at a density of 50,000 cells per well in 6-well tissue culture plates. After 24 hours of incubation, media is aspirated and replaced with media containing luminescent dyes at indicated concentrations. Each well is irradiated with an 850 nm LED lamp with an illumination rate of 526 mW/cm^2 for an hour in the incubator, and control cells are left in a dark incubator without irradiation. For studies with Cy7, a 740 nm LED lamp is used instead of an 850 nm, but with a similar illumination flux. Immediately after irradiation, the media is replenished with fresh dye-laced media and allowed to incubate for another 24 hours. […] Viable cell number is determined at 24 and 96 hours using trypan blue staining and a Nexcelom Cellometer Auto T4 cell counter. All assays are done with 3 biological replicates. The fold change in cell proliferation over days of treatment was calculated using the following equation.

[3] = test system: mitochondrial superoxide; experiment: MitoSOX measurement of mitochondrial superoxide; format: cell-based, human; settings: A549 cells treated 4 days at phototoxic concentrations; with or without light
Excerpt: FIG. 22. Luminescent organic salts generate mitochondrial ROS. […] MitoSOX is used to measure mitochondrial superoxide, and H2DCFDA for general cytoplasmic ROS in A549 cell treated with organic salts at indicated phototoxic concentrations for 4 days.
Photoactive agents accumulate in the mitochondria of cancer cells and generate reactive oxygen species (ROS) with light exposure, depolarizing the mitochondrial membrane potential to cause cell death. Small molecule protective agents that quench ROS have been used to decrease their phototoxicity. However, the exact type of ROS generated by each luminescent agent remains unclear. Photo-induced ROS include singlet oxygen, superoxide radical anion, hydrogen peroxide, hydroxyl radical and others (see FIG. 21). Superoxide is a highly reactive and biologically toxic species deployed in nature to kill invading organisms. It is often formed as a byproduct of mitochondrial respiration but is typically quenched by the highly efficient superoxide dismutase. Hydroxyl radicals are also highly reactive, damaging nearly all forms of biological molecules. Unlike superoxide radical, the hydroxyl radical cannot be easily quenched naturally via enzymes, and endogenous antioxidants are typically required. Singlet oxygen is the excited state of the common triplet oxygen (O2 ground state) and is highly reactive towards organic compounds. Singlet oxygen can be eliminated in mammalian systems by antioxidants. A range of nitroxy radicals can subsequently stem from superoxide (peroxynitrite) or peroxide (nitrogen dioxide) species. […] Each luminescent cation-anion pair generates specific ROS resonant with its own energy level, and cell types can be targeted by generating the key sensitizing ROS. For example, it is expected that CyFPhB is phototoxic (see FIGS. 11A and 11B and 12A and 12B) by generating reactive oxygen species, which can be resonant with its molecular orbital energy levels (FIG. 21). […] No cytoplasmic ROS is detected using general cytoplasmic ROS probe H2DCFDA. […]

[4] = In vivo imaging, organ and tumor localization in orthotopic breast cancer mouse model; settings: 1 mg/kg intraperitoneal, after 72 hours
Protocol: Mice are dosed with 1 mg/kg of organic salt in PBS (phosphate buffered saline) via intraperitoneal injection. Live imaging is performed by anesthetizing the mice with 3% isofluorane and using a Leica M165FC microscope with a PE4000 LED light source, DFC9000GT camera, and LAS X imaging software. For internal imaging, mice are sacrificed once tumors reach a size of 20 mm^3 and organs of interest are retrieved and imaged using the system described previously.

[5] = Absorption and emission spectra; format: physicochemical
Protocol: FIGS. 8A-8F. Non-toxic cation-anion pair enhances live cell IR fluorescence imaging. FIG. 8A is a graph showing tunable organic salts absorb and emit in the IR (700-1200 nm) and eliminate background noise from absorbance/emission tissue components such as melanin, water, oxyhemoglobin (Hb-O2) and hemoglobin (Hb). […] A549 cells were incubated with vehicle, 1 μM CyPF6, or 1 μM CyTPFB with or without IR (850 nm) excitation. Cell viability determined by trypan blue staining and cell counting. (D) CyTPFB staining in A549 cells. (E) DNA staining using 4',6-diamidino-2-phenylindole (DAPI). (F) Superimposed CyTPFB+DAPI staining. Effective fluorescence dyes must be non-toxic for live cell imaging. […] Further developed are luminescent dyes that absorb and emit in the optical tissue window for imaging without background absorption/emission from components of tissue such as water, hemoglobin, and melanin, as shown in FIG. 8A. Heptamethine cyanine (Cy^+) is a photoactive cation that absorbs and emits in IR wavelengths, with an excitation/emission maximum of 830/848 nm, as shown in FIG. 8B. The deeper excitation and emission of Cy^+ provide an advantage over Cy7 (excitation/emission maximum of 750/773 nm), allowing imaging at greater tissue depths. […] Imaging live cells with these toxic cation-anion pairs requires usage of low doses that result in low absorbance and emission, resulting in poor quality images. […] CyTPFB is non-toxic to cells even at greater than 20-fold higher concentrations of 20 μM. The non-toxic nature of CyTPBF allows use of high doses in eukaryotic and prokaryotic cells for enhanced IR imaging with greater brightness, as shown in FIGS. 8D-8F for a eukaryotic cell example.

[6] = A549 cells, 850 nm irradiation, read-out: IC50 850 nm
[7] = A549 cells, dark, no irradiation, read-out: IC50 Dark

SMILES: CCN1C(=CC=C2CCCC(C=CC3=[N+](CC)c4ccc5ccccc5c4C3(C)C)=C2Cl)C(C)(C)c2c1ccc1ccccc21.Clc1c(Cl)c(Cl)c2c(c1Cl)O[P-]13(O2)(Oc2c(Cl)c(Cl)c(Cl)c(Cl)c2O1)Oc1c(Cl)c(Cl)c(Cl)c(Cl)c1O3 [CyTRIS]
- Integrity of salt pairing in cellular environments [1]: maintained in cellular environments
- IC50 [2, 6]: 1200 µM
- IC50 [2, 7]: 1220 µM
- Toxicity in words, dark and light ([2]; A549 cells): not toxic to cells in the dark and in the light
- Toxicity in the dark, in words ([2]; A549 cells): deactivates the dark cellular toxicity

SMILES: CCN1C(=CC=C2CCCC(C=CC3=[N+](CC)c4ccc5ccccc5c4C3(C)C)=C2Cl)C(C)(C)c2c1ccc1ccccc21.F[P-](F)(F)(F)(F)F [CyPF6]
- Mitochondrial superoxide / ROS generation (MitoSOX), in words [3]: catalyzing superoxide with or without light
- Aggregation / nanoparticle behaviour in cell media, in words ([1]; cell media): lack of aggregation observed in cell media
- IC50 [2, 6]: 0.89 µM
- IC50 [2, 7]: 1.6 µM
- Toxicity in words, dark and light ([2]; A549 cells): toxic both in the dark and under IR (850 nm) illumination; also recorded: cytotoxic
- Toxicity in the dark, in words ([2]; A549 cells): cytotoxic
- Concentration at which cytotoxic [2]: < 2.5 µM
- Concentration at which cytotoxic ([2]; listed as Cy+ paired with PF6^−): 1.6 µM
- Localization in tumor versus other organs [4]: concentration of the organic salt to the tumor

- Emission maximum [5]: 773 nm
- Excitation maximum [5]: 750 nm
SMILES: C[N+]1=C(C=CC2=CC(=CC=C3N(CCCCCC(=O)ON4C(=O)CCC4=O)c4ccccc4C3(C)C)CCC2)C(C)(C)c2ccccc21.[Cl-] [Cy7, Cyanine7 NHS ester, reference compound]
- Toxicity of Cy7 salts, in words ([2]; A549 cells, with or without IR (740 nm) excitation): highly cytotoxic
- Concentration at which cytotoxic [2]: 1 µM

SMILES: CCN1C(=CC=C2CCCC(C=CC3=[N+](CC)c4ccc5ccccc5c4C3(C)C)=C2Cl)C(C)(C)c2c1ccc1ccccc21.Fc1ccc([B-](c2ccc(F)cc2)(c2ccc(F)cc2)c2ccc(F)cc2)cc1 [CyFPhB]
- Mitochondrial superoxide / ROS generation (MitoSOX), in words [3]: photo-generating ROS only with illumination; also recorded: photo-generating superoxide only with illumination
- Aggregation / nanoparticle behaviour in cell media, in words ([1]; cell media): forms small photoactive nanoparticles in cell media
- Average nanoparticle size in cell media ([1]; cell media): < 10 nm
- Integrity of salt pairing in cellular environments [1]: maintained in cellular environments
- IC50 [2, 6]: 3.5 µM
- Phototoxicity with IR excitation, in words ([2]; A549 cells): most phototoxic; also recorded: cause significant cell death with IR excitation; also recorded: highly phototoxic
- Phototoxicity with IR excitation, in words ([2]; A549 cells, listed as Cy^+ paired with FPhB): phototoxic
- IC50 [2, 7]: 46 µM
- Toxicity in words, dark and light ([2]; A549 cells): phototoxic but not cytotoxic; also recorded: phototoxic (but not cytotoxic)
- Toxicity in the dark, in words ([2]; A549 cells): allow cell growth in the dark
- Toxicity in the dark, in words ([2]; A549 cells, listed as Cy^+ paired with FPhB^−): deactivates the dark cellular toxicity

SMILES: CCN1C(=CC=C2CCCC(C=CC3=[N+](CC)c4ccc5ccccc5c4C3(C)C)=C2Cl)C(C)(C)c2c1ccc1ccccc21 [Cy^+, 2-[2-[2-chloro-3-[2-(1,3-dihydro-3,3-dimethyl-1-ethyl-2H-benz[e]indol-2-ylidene)ethylidene]-1-cylohexen-1-yl]-ethenyl]-3,3-dimethyl-1-ethyl-1H-benz[e]indolium]
- Emission maximum [5]: 848 nm
- Excitation maximum [5]: 830 nm

SMILES: [I-].[K+] [KI, reference compound]
- Toxicity in words, dark and light ([2]; A549 cells): not toxic; also recorded: does not cause toxicity in the dark or with light

SMILES: CCN1C(=CC=C2CCCC(C=CC3=[N+](CC)c4ccc5ccccc5c4C3(C)C)=C2Cl)C(C)(C)c2c1ccc1ccccc21.FC(F)(F)c1cc([B-](c2cc(C(F)(F)F)cc(C(F)(F)F)c2)(c2cc(C(F)(F)F)cc(C(F)(F)F)c2)c2cc(C(F)(F)F)cc(C(F)(F)F)c2)cc(C(F)(F)F)c1 [CyTFM]
- Integrity of salt pairing in cellular environments [1]: maintained in cellular environments
- IC50 [2, 6]: 29 µM
- IC50 [2, 7]: 125 µM
- Toxicity in words, dark and light ([2]; A549 cells): not toxic to cells in the dark and in the light
- Toxicity in the dark, in words ([2]; A549 cells): deactivates the dark cellular toxicity
